# Values of other authors, collected in paper PMC7395068, “The evolution of strategies to minimise the risk of human drug-induced liver injury (DILI) in drug discovery and development” (Archives of Toxicology, 2020).
# Like-named read-outs stand apart in the source and are kept apart here.
# Tests used:
# HepG2 cells [1] = settings: In vitro Assay; ref Persson 2013; cited from earlier work
# [2] = cited from earlier work
# HepG2 cells [3] = settings: cited from earlier work
# [4] = cited from earlier work; remark: listed apart in the source
# human hepatocytes = settings: cited from earlier work
# [5] = test system: isolated mouse liver mitochondria; settings: cited from earlier work
# [6] = test system: THLE or HepG2 cells, isolated mitochondria, BSEP; settings: cited from earlier work
# [7] = test system: primary human hepatocytes, NIH3T3 fibroblasts, BSEP, CYP3A4; settings: cited from earlier work
# [8] = In vitro Assay, ref O'Brien 2006
# [9] = In vitro Assay, ref Porceddu 2012
# [10] = In vitro Assay, ref Schadt 2015
Compound,Cluser analysis (HepG2 cells [1]),Structural based (HCI) (HepG2 cells [1]),"DILI +VE (5-8), DILI -VE (-4) ([2]; ref Chen 2016)",DILI severity category ([2]; ref Chen 2016),Structural based (HCI) (HepG2 cells [3]; [8]),In vivo DILI ([4]; ref O'Brien 2006),In vivo DILI ([4]; ref Persson 2013),"Structural based (HCI) (human hepatocytes; In vitro Assay, ref Xu 2008)",In vivo DILI ([4]; ref Xu 2008),"Partition Hybrid HRM Score ([6]; In vitro Assay, ref Aleo 2019)","Ro2 Hybrid HRM Score ([6]; In vitro Assay, ref Aleo 2019)",also measured
Cc1ncc(C[n+]2csc(CCO)c2C)c(N)n1 [thiamine],-VE,-VE,-VE,vNo-DILI-Concern,+VE (lowest HCI endpoint IC50 (or in the absence of dose–response < 100 µM) < 30 × total human plasma exposure levels (Cmax.tot)),-VE,-VE,–,–,–,–,–
COc1cc(N)c(Cl)cc1C(=O)NC1CCN(CCCOc2ccc(F)cc2)CC1OC (stereo not shown) [cisapride],-VE,-VE,–,–,+VE,-VE,-VE,-VE,-VE,–,–,In vivo DILI ([4]; […]): -VE
COC(=O)Nc1nc2ccc(C(=O)c3cccs3)cc2[nH]1 [nocodazole],–,–,–,–,+VE (lowest HCI endpoint IC50 (or in the absence of dose–response < 100 µM) < 30 × total human plasma exposure levels (Cmax.tot)),-VE,–,-VE,-VE,–,–,–
CCCCN1CCCCC1C(=O)Nc1c(C)cccc1C (stereo not shown) [bupivacaine],–,–,–,–,+VE (lowest HCI endpoint IC50 (or in the absence of dose–response < 100 µM) < 30 × total human plasma exposure levels (Cmax.tot)),-VE,–,-VE,-VE,–,–,"in vitro data EC2<=1x Cmax [5, 9]: -VE; in vitro data EC20<=2uM [5, 9]: -VE; In vivo DILI ([4]; ref Porceddu 2012): +VE"
Cc1cn([C@H]2C[C@H](N=[N+]=[N-])[C@@H](CO)O2)c(=O)[nH]c1=O [zidovudine],–,–,–,–,–,–,–,–,–,–,–,"Structural based (HCI) (human hepatocytes): -VE; DILI severity category ([2]; in vivo): vMost-DILI-Concern; in vitro data EC2<=1x Cmax [5, 9]: +VE; in vitro data EC20<=2uM [5]: -VE; Structural based (HCI) (HepG2 cells [3]): +VE; Partition Hybrid HRM Score [6]: -VE; Ro2 Hybrid HRM Score [6]: -VE"
CC1(C)O[C@@H]2[C@@H](CO[C@@]3(COS(N)(=O)=O)OC(C)(C)O[C@@H]23)O1 [topiramate],-VE,-VE,+VE,vLess-DILI-Concern,+VE (lowest HCI endpoint IC50 (or in the absence of dose–response < 100 µM) < 30 × total human plasma exposure levels (Cmax.tot)),-VE,-VE,–,–,–,–,–
COc1cccc2c1C(=O)c1c(O)c3c(c(O)c1C2=O)C[C@@](O)(C(=O)CO)C[C@@H]3O[C@H]1C[C@H](N)[C@H](O)[C@H](C)O1 [doxorubicin],–,–,+VE,vLess-DILI-Concern,+VE,+VE,–,–,–,–,–,"in vitro data EC2<=1x Cmax [5, 9]: +VE; in vitro data EC20<=2uM [5, 9]: +VE; Cellular toxicity (3T3 cells) [7, 10]: +VE; GSH adduct HML [7, 10]: -VE; Hepatocyte cellular toxicity [7, 10]: -VE; MitoTox 3T3 [7, 10]: -VE; TDI CYP3A4 [7, 10]: -VE; hBSEP inhibition [7, 10]: -VE; In vivo DILI ([4]; […]): +VE; In vivo DILI ([4]; ref Porceddu 2012): +VE; In vivo DILI ([4]; ref Schadt 2015): -VE"
O=C(CCNNC(=O)c1ccncc1)NCc1ccccc1 [nialamide],-VE,-VE,+VE,vMost-DILI-Concern,+VE (lowest HCI endpoint IC50 (or in the absence of dose–response < 100 µM) < 30 × total human plasma exposure levels (Cmax.tot)),-VE,-VE,–,–,–,–,–
Nc1ccn([C@H]2CC[C@@H](CO)O2)c(=O)n1 [zalcitabine],–,–,–,–,-VE,-VE,–,-VE,-VE,-VE,-VE,In vivo DILI ([4]; ref Aleo 2019): +VE
CC12CC3CC(C)(C1)CC(N)(C3)C2 [memantine],–,–,+VE,vLess-DILI-Concern,-VE,-VE,–,-VE,-VE,–,–,–
CC[N+](C)(CC)CCOC(=O)C(O)(c1ccccc1)C1CCCCC1 (stereo not shown) [oxyphenonium],-VE,-VE,–,–,-VE,-VE,-VE,-VE,-VE,–,–,–
C[N+](C)(C)CCOP(=O)(O)OP(=O)([O-])OC[C@H]1O[C@@H](n2ccc(N)nc2=O)[C@H](O)[C@@H]1O [citicoline],-VE,-VE,–,–,+VE (lowest HCI endpoint IC50 (or in the absence of dose–response < 100 µM) < 30 × total human plasma exposure levels (Cmax.tot)),-VE,-VE,–,–,–,–,–
cyanocobalamin,–,–,–,–,-VE,-VE,–,-VE,-VE,-VE,-VE,"DILI +VE (5-8), DILI -VE (-4) ([2]; in vivo): -VE; DILI severity category ([2]; in vivo): vNo-DILI-Concern; In vivo DILI ([4]; ref Aleo 2019): -VE"
COc1cc(C(=O)NS(=O)(=O)c2ccccc2C)ccc1Cc1cn(C)c2ccc(NC(=O)OC3CCCC3)cc12 [zafirlukast],–,–,+VE,vMost-DILI-Concern,+VE,+VE,–,-VE,+VE,+VE,+VE,In vivo DILI ([4]; […]): +VE; In vivo DILI ([4]; ref Aleo 2019): +VE
O=[N+]([O-])O[C@H]1CO[C@H]2[C@@H]1OC[C@H]2O[N+](=O)[O-] [isosorbide dinitrate],-VE,-VE,-VE,vNo-DILI-Concern,+VE (lowest HCI endpoint IC50 (or in the absence of dose–response < 100 µM) < 30 × total human plasma exposure levels (Cmax.tot)),-VE,-VE,–,–,–,–,–
O=C(O)c1cccnc1 [niacin],–,–,–,–,-VE,–,–,–,–,+VE,-VE,–
CCOC(=O)C(C)(C)Oc1ccc(Cl)cc1 [clofibrate],-VE,-VE,+VE,vLess-DILI-Concern,+VE,+VE,+VE,–,–,+VE,+VE,In vivo DILI ([4]; […]): -VE; In vivo DILI ([4]; ref Aleo 2019): +VE
CNC(=O)Oc1ccc2c(c1)[C@]1(C)CCN(C)[C@@H]1N2C [eserine],-VE,-VE,–,–,+VE (lowest HCI endpoint IC50 (or in the absence of dose–response < 100 µM) < 30 × total human plasma exposure levels (Cmax.tot)),-VE,-VE,-VE,-VE,–,–,–
O=C1Nc2ccc(Cl)cc2[C@@](C#CC2CC2)(C(F)(F)F)O1 [efavirenz],+VE,+VE,+VE,vMost-DILI-Concern,+VE (lowest HCI endpoint IC50 (or in the absence of dose–response < 100 µM) < 30 × total human plasma exposure levels (Cmax.tot)),+VE,+VE,–,–,–,–,–
CCc1nc(N)nc(N)c1-c1ccc(Cl)cc1 [pyrimethamine],–,–,+VE,vLess-DILI-Concern,+VE,+VE,–,+VE,+VE,–,–,Cellular toxicity (3T3 cells) [7]: -VE; Combined Assay [7]: -VE; GSH adduct HML [7]: -VE; Hepatocyte cellular toxicity [7]: -VE; MitoTox 3T3 [7]: -VE; TDI CYP3A4 [7]: -VE; hBSEP inhibition [7]: -VE; In vivo DILI ([4]; ref Schadt 2015): -VE
C=C1c2cccc(O)c2C(=O)C2=C(O)[C@]3(O)C(=O)C(C(N)=O)=C(O)[C@@H](N(C)C)[C@@H]3[C@@H](O)[C@H]12 [methacycline],–,–,–,–,+VE (lowest HCI endpoint IC50 (or in the absence of dose–response < 100 µM) < 30 × total human plasma exposure levels (Cmax.tot)),+VE,–,+VE,+VE,–,–,–
CC[C@H](C)C(=O)O[C@H]1C[C@H](O)C=C2C=C[C@H](C)[C@H](CC[C@@H](O)C[C@@H](O)CC(=O)O)[C@H]21 [pravastatin],–,–,+VE,vLess-DILI-Concern,-VE,+VE,–,–,–,+VE,-VE,"in vitro data EC2<=1x Cmax [5, 9]: -VE; in vitro data EC20<=2uM [5, 9]: -VE; In vivo DILI ([4]; […]): -VE; In vivo DILI ([4]; ref Aleo 2019): +VE; In vivo DILI ([4]; ref Porceddu 2012): +VE"
C[C@@](Cc1ccc(O)c(O)c1)(NN)C(=O)O [carbidopa],-VE,-VE,-VE,Ambiguous DILI-concern,-VE,-VE,-VE,-VE,-VE,-VE,-VE,–
